Measured values: patent US20140050778A1, “NUCLEIC ACID BINDING COMPOUNDS, METHODS OF MAKING, AND USE THEREOF” (UNIVERSITY OF ROCHESTER, priority 2010, published 2014)
“Also recorded” adds a separate entry of the source.

How the values were obtained:
[1] = biological target: (CUG)10 RNA (SEQ ID NO: 3); experiment: SPR binding to immobilized biotinylated RNA
Description: (§1) SPR binding measurements were performed on a Biacore-X instrument (Biacore, Inc., Uppsala, Sweden) with two flow channels (FC1 and FC2). 5′-Biotinylated-RNA sequences, with a C6 linker separating the biotin label from the RNA (Integrated DNA Technologies Inc.) were immobilized on streptavidin (Rockland Immunochemicals) functionalized carboxylmethyl dextran coated sensor chips (CM5, G.E. Healthcare) using EDC/NHS (Advanced ChemTech) coupling chemistry. Filtered (0.2μ), degassed and autoclaved HBS-N buffer (0.01M Hepes, pH=7.4, 0.15 M NaCl) was employed as sample and as running buffer for all SPR experiments. A typical protocol for an experiment is as follows: A CM5 sensor chip was allowed to equilibrate to room temperature and then docked into the instrument. Following priming with running buffer, FC1 and FC2 were conditioned by manual injection of 20 μL aqueous NaOH (50 mM) at a flow rate of 30 μL/min. This was repeated 3 times followed by a wash command. Next, the carboxyl groups on the sensor chip surface in both flow cells were activated separately by injecting 60 μL of freshly prepared 1:1 mixture of EDC (0.4 M) and NHS (0.1 M) at a 5 μL/min flow rate followed by a wash. […] After washing, the surface was deactivated with 60 μL injection of ethanolamine (1M, pH=8.5) at 5 μL/min. The flow cells were primed, and the streptavidin surface in FC1 alone was blocked with 30 μL of biotin (20 μM in HBS-N) at 5 μL/min. The RNA (200 nM in running buffer, HBS-N) to be immobilized was unfolded by heating above its predicted melting temperature in a heated block for 2 min and then allowed to refold by cooling gradually to room temperature. The RNA was then immobilized in FC2 alone to response units ranging from 200-1000 RU using a 5 μL/min flow rate. Representative sensorgrams for the immobilization procedure is shown in FIGS. 2A-B. Two 20 μL aliquots of NaCl (0.5 M) were injected at a 30 μL/min flow rate to remove non-specifically bound RNA. The level of RNA immobilized was noted when the baseline was stable, usually after repeated buffer injection followed by a “prime” command. Binding measurements were performed by flowing various concentrations of the compounds to be analyzed over the immobilized RNA and recording the reference-subtracted (FC2−FC1) sensorgrams. For kinetic analysis, at least five sensorgrams corresponding to different concentrations of compound (usually ranging from 0.05-1 μM in HBS-N) were obtained using flow rates of either 60 μL/min or 30 μL/min. The experimental sensorgrams were globally fitted to a 1:1 binding equation (Biaevaluation software) to obtain association rates (ka) and dissociation rates ([…]) as well as equilibrium binding constants (KD). To measure the binding stoichiometry (n), the relations in equations (1-3) below were used: […]
(§2) where RUmax is the maximum resonance response unit at saturation, RURNA is the amount RU of RNA immobilized, n is the stoichiometry, MWcompound and MWRNA are molecular weights of compound and RNA respectively, and RUeq represents the resonance response at steady-state (equilibrium). The response units at equilibrium were subjected to Scatchard binding plots of (r/Cfree vs. r).
This technique allows the association and dissociation rates (ka and kd), equilibrium binding constants (KD), and the binding stoichiometry (n) to be measured in a label-free format (Liu and Wilson, “Quantitative Analysis of Small Molecule-nucleic Acid Interactions with a Biosensor Surface and Surface Plasmon Resonance Detection,” Methods Mol. Biol. 613:1-23 (2010), which is hereby incorporated by reference in its entirety).

(CUG)10 RNA = experiment: Fluorescence titration (benzo[g]quinoline quenching); assay type: binding; details: (CUG)10, 1 μM compound in HBS-N
Description: The benzo[g]quinoline moiety is fluorescent, with excitation and emission maxima at 362 nm and 439 nm respectively in methanol. Fluorescence titration binding measurements were performed on a Cary Eclipse fluorescence spectrophotometer using a 10 mm path-length semimicro quartz fluorescence cell with 400 μL sample holding capacity. Absorbance measurements were carried out on a UV-Visible spectrophotometer (Shimadzu, UV-1601PC) using a 1 mL (1 cm path-length) quartz cell. Spectroscopic grade anhydrous methanol used in the measurement of relative quantum yield of the 2-ethyl benzo[g]quinoline carboxylic acid was purchased from Alfa Aesar and was used without further purification. For these measurements, known procedures were used (Lee and Grissom, “Design, Synthesis, and Characterization of Fluorescent Cobalamin Analogues with High Quantum Efficiencies,” Org. Lett. 11:2499-2502 (2009); Joseph R. Lakowicz, Principles of Fluorescence Spectroscopy, 2nd edition (Kluwer Academic/Plenum Publishers, 1999), which are hereby incorporated by reference in their entirety). Briefly, RNA (10 μM stock) in HBS-N buffer was titrated into a solution of 1 μM compound in HBS-N. After each addition of RNA, ten minutes were allowed for equilibration before recording the change in fluorescence at 468.5 nm. Fluorescence units (“FU”) were then corrected for dilution and the FU after each addition was subtracted from the FU at zero RNA concentration to give AFU. Following saturation, AFU was plotted against RNA concentration using Origin 7 (OriginLab, Inc.), and fitted to a 1:1 Langmuir binding model to obtain apparent dissociation constants (Kn). […]
Selected equilibrium affinities for (CUG)10 were confirmed by fluorescence titration. The quantum yield of the ethylbenzo[g]quinoline carboxylic acid (compound 2), relative to quinine sulfate, was determined to be 0.64 (FIGS. 5A-F). […] Apparent KD values measured in this manner are consistent with those obtained by SPR (Table 6); that they are not identical to SPR-measured values likely results from the differing formats of the two methods. […]

[2] = tested on: CUG-CAG duplex ("Duplex") (SEQ ID NO: 6); experiment: SPR binding to immobilized biotinylated RNA; details: Duplex
Description: as §1, §2
(§3) The binding characteristics of compounds 3-11 were evaluated against pathogenic CUG^exp RNA and other RNA sequences by SPR. This technique allows the association and dissociation rates (ka and kd), equilibrium binding constants (KD), and the binding stoichiometry (n) to be measured in a label-free format (Liu and Wilson, “Quantitative Analysis of Small Molecule-nucleic Acid Interactions with a Biosensor Surface and Surface Plasmon Resonance Detection,” Methods Mol. Biol. 613:1-23 (2010), which is hereby incorporated by reference in its entirety). […]

[3] = tested on: (CAG)10 RNA (SEQ ID NO: 5); experiment: SPR binding to immobilized biotinylated RNA
Description: as §1, §2, §3

[4] = tested on: (CCUG)10 RNA (SEQ ID NO: 4); experiment: SPR binding to immobilized biotinylated RNA; details: (CCUG)10
Description: as §1, §2, §3

[5] = tested on: HIV-1 FSS RNA (SEQ ID NO: 7); experiment: SPR binding to immobilized biotinylated RNA
Description: as §1
where RUmax is the maximum resonance response unit at saturation, RURNA is the amount RU of RNA immobilized, n is the stoichiometry, MWcompound and MWRNA are molecular weights of compound and RNA respectively, and RUeq represents the resonance response at steady-state (equilibrium). The response units at equilibrium were subjected to Scatchard binding plots of (r/Cfree vs. r). […]
SPR and fluorescence titration experiments, performed using the protocol described in Examples 3 and 4 above, except using as the target a highly conserved RNA sequence responsible for regulating the production of the Gag-Pol polyprotein via a −1 ribosomal frameshift, which occurs along a “slippery sequence” in gag-pol mRNA (SEQ ID NO: 7). This “frameshift stimulatory sequence” (or “HIV-1 FSS”) consists of an upper stemloop and a lower stem, separated by a purine bulge in the most common types of HIV (FIG. 19). For the fluorescent titration experiments, the upper stemloop of SEQ ID NO: 7 was employed. Cell uptake and toxicity studies were carried out using human fibroblasts according to Example 5 above.

HSA^LR transgenic mice = experiment: MBNL1-dependent splicing in mouse myotonic dystrophy model (RT-PCR, vastus muscle); assay type: in vivo; details: 40 mg/kg intraperitoneally once per day for 5 days
Description: Mouse handling and experimental procedures were conducted in accordance with the Association for Assessment and Accreditation of Laboratory Animal Care. […] Age- and gender-matched HSA^LR mice (12-16 weeks old) were injected intraperitoneally with 40 mg/kg of compounds or saline alone once per day for 5 days. Mice were sacrificed one day after the last injection, and vastus muscle was obtained for splicing analysis. RNA extraction, cDNA preparation, and RT-PCR were performed as described previously. The PCR products were electrophoresed on agarose gels for separation, and scanned with a laser fluorimager (Typhoon, GE Healthcare). Quantitative analysis of amplified products was performed by ImageQuant software (Molecular Dynamics). Differences between two groups were evaluated by unpaired Student's t-test. A critical test of a compound's performance is its ability to function in vivo. DM1 has several well-studied mouse models (Gomes-Pereira et al., “Myotonic Dystrophy Mouse Models: Towards Rational Therapy Development,” Trends Mol. Med. 17:506-517 (2011), which is hereby incorporated by reference in its entirety). Compound activity in the HSA^LR mouse model, in which transgenic mice carry a long CTG repeat inserted into the human skeletal actin (HSA) gene in skeletal muscle (Mankodi, “Myotonic Dystrophy in Transgenic Mice Expressing an Expanded CUG Repeat,” Science 289:1769-1772 (2000), which is hereby incorporated by reference in its entirety) was examined. […] They also display aberrant splicing of genes, including Clcn1 and Atp2a1, which are hallmarks of nuclear transcript sequestration.

mouse C2C12 myoblasts = experiment: Cell permeability by fluorescence microscopy; assay type: cell-based; details: 12 h, 125 μM, intrinsic fluorescence
Description: For cell permeability studies, human fibroblasts or mouse myoblasts grown to 80% confluence were exposed to compounds for 12 hours in a 96 well tissue culture plate. After removal of the culture media (DMEM, with 10% FBS, 1% pen-strep (GIBCO)) the cells were washed twice with PBS to remove excess compounds. Cells were then imaged while in buffer under a fluorescence microscope (Olympus IX70) in the 96-well plate using a 460 nm emission filter.

Compound	apparent KD ([1]; SPR, (CUG)10)	apparent KD ((CUG)10 RNA)	Residence time (t1/2) for compound binding to RNA [2] [min]	Off-rates (koff) ([2]; SPR) [s⁻¹]	On-rates (kon) ([2]; SPR) [M⁻¹ s⁻¹]	Residence time (t1/2) for compound binding to RNA [3] [min]	Off-rates (koff) ([3]; SPR) [s⁻¹]	On-rates (kon) ([3]; SPR) [M⁻¹ s⁻¹]	Residence time (t1/2) for compound binding to RNA [4] [min]	Off-rates (koff) ([4]; SPR) [s⁻¹]	On-rates (kon) ([4]; SPR) [M⁻¹ s⁻¹]	Residence time (t1/2) for compound binding to RNA ([1]; (CUG)10) [min]	Off-rates (koff) ([1]; SPR, (CUG)10) [s⁻¹]	On-rates (kon) ([1]; SPR, (CUG)10) [M⁻¹ s⁻¹]	sequence selectivity ([1]; SPR, CUG repeats versus other RNAs)	Residence time (t1/2) for compound binding to RNA [5] [min]	Off-rates (koff) ([5]; SPR) [s⁻¹]	On-rates (kon) ([5]; SPR) [M⁻¹ s⁻¹]	improvement of Clcn1 splicing (HSA^LR transgenic mice)	cell membrane penetration / localization (mouse C2C12 myoblasts)
C=CC[C@H](NC(=O)[C@@H]1CCCN1C(=O)c1cc2cc3ccccc3cc2nc1CC)C(=O)N[C@@H](CCCCN)C(=O)NCCCN [Compound 3]	no measurable affinity; also recorded: complete lack of binding	No binding	–	–	–	–	–	–	–	–	–	–	–	–	–	–	–	–	–	–
CCc1nc2cc3ccccc3cc2cc1C(=O)N[C@@H](CCCCN)C(=O)N[C@@H](C/C=C/C[C@H](NC(=O)[C@H](CCCCN)NC(=O)c1cc2cc3ccccc3cc2nc1CC)C(=O)N1CCC[C@H]1C(=O)NCCCN)C(=O)N1CCC[C@H]1C(=O)NCCCN [Compound 9]	reduced affinity	–	6.2097	0.00186	24300	3.3575	0.00344	15700	4.262	0.00271	19900	4.0527	0.00285	24200	no selectivity for CUG or CCUG repeats relative to duplex CUG-CAG or HIV-1 FSS RNAs	5.775	0.002	32300	not	significantly less able to enter cells than compounds 4, 5, or 11
